Reference: patent US6169181A, “Compounds useful to treat retroviral infections” (Pharmacia & Upjohn Company, priority 1998, dated 2001)
Values joined by “and” are separate entries in the source; they are usually repeats but may differ in a detail not shown here. Identical values can stand only once. Like-named read-outs stand apart in the source and are kept apart here.

What was measured:
[1] = target: T1, single chain tethered (tandem) HIV protease (HIV-1 M:B_HXB2R, UniProt P04585); test: Tandem HIV protease assay; format: biochemical; details: read-out: FITC KI; Table II; enzyme HIV1TANDEM
T1 construct: purified enzyme, FITC/biotin substrate assay
Outline: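 Covalently tethered single-chain HIV protease dimer allows very low enzyme levels for Ki measurement. N-biotinylated, C-fluorescein-labelled peptide substrate incubated with enzyme and inhibitor at pH 5.5 in the dark for 96 h; streptavidin beads stop reaction, cleaved product filtered off and residual fluorescence fitted to obtain Ki.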

[2] = target: HIV-1 protease (Human immunodeficiency virus type 1 group M subtype B, UniProt P04585); test: biochemical
Outline: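 A substrate biotinylated at the N-terminal arginine and FITC-labelled at the C-terminal lysine was incubated with HIV-1 protease (10 μl of 0.1 μM) and compound for 1 h in the dark at room temperature. Buffer was 0.1 M sodium acetate pH 5.5, 1.0 M NaCl, 0.05% NP-40. Labelled product was separated from substrate using streptavidin beads and filtration, and the fluorescence gave percent inhibition.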

[3] = Table II, enzyme HIV-1, DOSE 0.123 (unit not given)
[4] = Table II, enzyme HIV-1, DOSE 0.370 (unit not given)
[5] = Table II, enzyme HIV-1, DOSE 1.100 (unit not given)
[6] = Table II, enzyme HIV-1, DOSE 3.300 (unit not given)
[7] = Table II, enzyme HIV-1, DOSE 10.000 (unit not given)
[8] = Table II, enzyme HIV-1, DOSE 30.000 (unit not given)

Compound	Ki [1] [pM]	PROTEASE % INHIB. [2, 3] [%]	PROTEASE % INHIB. [2, 4] [%]	PROTEASE % INHIB. [2, 5] [%]	PROTEASE % INHIB. [2, 6] [%]	PROTEASE % INHIB. [2, 7] [%]	PROTEASE % INHIB. [2, 8] [%]	PROTEASE % INHIB. [2]
CCC[C@@]1(CCc2ccc(F)cc2)CC(O)=C([C@@H](c2cccc(NS(=O)(=O)c3ccc(N)cn3)c2)C(C)(C)C)C(=O)O1 (single isomer, unassigned) [Example 317, 5-Amino-N-[3(R or S)-(1-[6(R or S)-(2-[4-fluorophenyl]ethyl)-5,6-dihydro-4-hydroxy-2-oxo-6-propyl-2H-pyran-3-yl]-2,2-dimethyl-propyl)phenyl]-2-pyridine-sulfonamide]	40	87.38	94.14	98.45	95.97	101.26	108.59	
CCCC1(CCC)CC(O)=C(C(c2cccc(NS(=O)(=O)c3cn(C)cn3)c2)C(C)(C)C)C(=O)O1 (single isomer, unassigned) [Example 318, N-[3(R or S)-(1-[5,6-Dihydro-6,6-dipropyl-4-hydroxy-2-oxo-2H-pyran-3-yl]-2,2-dimethylpropyl)-phenyl]-1-methyl-1H-imidazole-4-sulfonamide]	19	98.06	106.35	101.88	88.73	94.49	82.83	
CCCC1(CCC)CC(O)=C(C(c2cccc(NS(=O)(=O)c3cn(C)cn3)c2)C(C)(C)C)C(=O)O1 (single isomer, unassigned) [Example 319, N-[3(R or S)-(1-[5,6-Dihydro-6,6-dipropyl-4-hydroxy-2-oxo-2H-pyran-3-yl]-2,2-dimethylpropyl)-phenyl]-1-methyl-1H-imidazole-4-sulfonamide]	29500	10.75	32.65	60.14	75.86	93.46	74.48	
CCC[C@@]1(CCc2ccccc2)CC(O)=C([C@H](CC)c2cccc(NS(=O)(=O)c3ccc(C#N)cn3)c2)C(=O)O1 (single isomer, unassigned) [Example 335, N-[3-{1(R or S)-(4-Hydroxy-5,6-dihydro-2-oxo-6(R or S)-phenethyl-6-propyl-2H-pyran-3-yl)propyl}phenyl]-5-cyanopyridine-2-sulfonamide]	40							60.07 and 99.75 and 97.05 and 92.06 and 89.77 and 76.25
CCC[C@]1(CCc2ccccc2)CC(O)=C([C@H](CC)c2cccc(NS(=O)(=O)c3ccc(C#N)cn3)c2)C(=O)O1 (single isomer, unassigned) [Example 336, N-[3-{1(R or S)-(4-Hydroxy-5,6-dihydro-2-oxo-6(S or R)-phenethyl-6-propyl-2H-pyran-3-yl)propyl}phenyl]-5-cyanopyridine-2-sulfonamide]	32							65.64 and 112 and 89.54 and 88.06 and 77.12 and 62.28
CCC[C@]1(CCc2ccccc2)CC(O)=C([C@@H](CC)c2cccc(NS(=O)(=O)c3ccc(C#N)cn3)c2)C(=O)O1 (single isomer, unassigned) [Example 338, N-[3-{1(S or R)-(4-Hydroxy-5,6-dihydro-2-oxo-6(S or R)-phenethyl-6-propyl-2H-pyran-3-yl)propyl]phenyl]-5-cyano-pyridine-2-sulfonamide]	100							61.74 and 85.32 and 80.46 and 89.62 and 83.53 and 62.34
CCC[C@@]1(CCc2ccccc2)CC(O)=C([C@H](CC)c2cccc(NS(=O)(=O)c3cn(C)cn3)c2)C(=O)O1 (single isomer, unassigned) [Example 339, N-[3-{1(R or S)-(4-Hydroxy-5,6-dihydro-2-oxo-6(R or S)-phenethyl-6-propyl-2H-pyran-3-yl)propyl}phenyl]-1-methyl-1H-imidazole-4-sulfonamide]	120							83.49 and 100.6 and 101.42 and 104.71 and 91.38 and 72.86
CCC[C@]1(CCc2ccccc2)CC(O)=C([C@H](CC)c2cccc(NS(=O)(=O)c3cn(C)cn3)c2)C(=O)O1 (single isomer, unassigned) [Example 340, N-[3-{1(R or S)-(4-Hydroxy-5,6-dihydro-2-oxo-6(S or R)-phenethyl-6-propyl-2H-pyran-3-yl)propyl}phenyl]-1-methyl-1H-imidazole-4-sulfonamide]	60							80.58 and 90.49 and 90.16 and 91.57 and 89.49 and 71.99
CCC[C@]1(CCc2ccccc2)CC(O)=C([C@@H](CC)c2cccc(NS(=O)(=O)c3cn(C)cn3)c2)C(=O)O1 (single isomer, unassigned) [Example 342, N-[3-{1(S or R)-(4-Hydroxy-5,6-dihydro-2-oxo-6(S or R)-phenethyl-6-propyl-2H-pyran-3-yl)propyl}phenyl]-1-methyl-1H-imidazole-4-sulfonamide]	309							81.06 and 93.18 and 96.94 and 85.55 and 73.55 and 73.95
CCC[C@@]1(CCc2ccc(F)cc2)CC(O)=C([C@@H](c2cccc(NS(=O)(=O)c3ccc(C#N)cn3)c2)C(C)(C)C)C(=O)O1 (single isomer, unassigned) [Example 345, N-[3-{1(R or S)-(4-Hydroxy-5,6-dihydro-2-oxo-6(R or S)-(2-(4-fluorophenyl)ethyl)-6-propyl-2H-pyran-3-yl)-2,2-dimethyl-propyl}phenyl]-5-cyanopyridine-2-sulfonamide]	32	69.19	94.37	101.67	99.08	97.43	84.56	
CCC[C@@]1(CCc2ccc(F)cc2)CC(O)=C([C@H](c2cccc(NS(=O)(=O)c3ccc(C#N)cn3)c2)C(C)(C)C)C(=O)O1 (single isomer, unassigned) [Example 347, N-[3-{1(S or R)-(4-Hydroxy-5,6-dihydro-2-oxo-6(R or S)-(2-(4-fluorophenyl)ethyl)-6-propyl-2H-pyran-3-yl)-2,2-dimethyl-propyl}phenyl]-5-cyanopyridine-2-sulfonamide]	13600	20.99	50.82	71.4	83	90.97	87.18	
CCC[C@]1(CCc2ccc(F)cc2)CC(O)=C([C@H](c2cccc(NS(=O)(=O)c3ccc(C#N)cn3)c2)C(C)(C)C)C(=O)O1 (single isomer, unassigned) [Example 348, N-[3-{1(S or R)-(4-Hydroxy-5,6-dihydro-2-oxo-6(S or R)-(2-(4-fluorophenyl)ethyl)-6-propyl-2H-pyran-3-yl)-2,2-dimethyl-propyl}phenyl]-5-cyanopyridine-2-sulfonamide]	1960	53.47	78.32	89.84	92.96	96.28	84.67	
CCC[C@@]1(CCc2ccc(F)cc2)CC(O)=C([C@@H](c2cccc(NS(=O)(=O)c3cn(C)cn3)c2)C(C)(C)C)C(=O)O1 (single isomer, unassigned) [Example 349, N-[3-{1(R or S)-(4-Hydroxy-5,6-dihydro-2-oxo-6(R or S)-(2-(4-fluorophenyl)ethyl)-6-propyl-2H-pyran-3-yl)-2,2-dimethyl-propyl}phenyl]-1-methyl-1H-imidazole-4-sulfonamide]	111	74.5	88.21	99.92	104.99	103.49	98.24	
CC(C)(C)C(C1=C(O)CC(CCc2ccccc2)(CCc2ccccc2)OC1=O)c1cccc(NS(=O)(=O)c2ccc(N)cn2)c1 (single isomer, unassigned) [Example 356, N-[3-{1(S or R)-(4-Hydroxy-5,6-dihydro-2-oxo-6,6-bis(2-phenyl-ethyl)-2H-pyran-3-yl)-2,2-dimethylpropyl}phenyl]-5-amino-pyridine-2-sulfonamide]	1100	54.96	71.75	90.19	92.28	100.22	95.16	
